“Also recorded” adds a separate entry of the source.
Experiments:
h5-LOX = target: T1, h5-LOX (Homo sapiens, UniProt P09917, C241A/C562A/D45S/DEL41-43/F15H/K654E/K655N/K656L/L77S/N44G/W14E/W76G); test: IC50 determination against h5-LOX; type: biochemical; details: 10 μM AA, 50 mM HEPES pH 7.5, 200 µM ATP, ammonium-sulfate precipitate enzyme, 22 °C
T1 sequence (P09917 with tags, fused parts or gaps W14E/F15H/DEL41-43/N44G/D45S/W76G/L77S/C241A/C562A/K654E/K655N/K656L): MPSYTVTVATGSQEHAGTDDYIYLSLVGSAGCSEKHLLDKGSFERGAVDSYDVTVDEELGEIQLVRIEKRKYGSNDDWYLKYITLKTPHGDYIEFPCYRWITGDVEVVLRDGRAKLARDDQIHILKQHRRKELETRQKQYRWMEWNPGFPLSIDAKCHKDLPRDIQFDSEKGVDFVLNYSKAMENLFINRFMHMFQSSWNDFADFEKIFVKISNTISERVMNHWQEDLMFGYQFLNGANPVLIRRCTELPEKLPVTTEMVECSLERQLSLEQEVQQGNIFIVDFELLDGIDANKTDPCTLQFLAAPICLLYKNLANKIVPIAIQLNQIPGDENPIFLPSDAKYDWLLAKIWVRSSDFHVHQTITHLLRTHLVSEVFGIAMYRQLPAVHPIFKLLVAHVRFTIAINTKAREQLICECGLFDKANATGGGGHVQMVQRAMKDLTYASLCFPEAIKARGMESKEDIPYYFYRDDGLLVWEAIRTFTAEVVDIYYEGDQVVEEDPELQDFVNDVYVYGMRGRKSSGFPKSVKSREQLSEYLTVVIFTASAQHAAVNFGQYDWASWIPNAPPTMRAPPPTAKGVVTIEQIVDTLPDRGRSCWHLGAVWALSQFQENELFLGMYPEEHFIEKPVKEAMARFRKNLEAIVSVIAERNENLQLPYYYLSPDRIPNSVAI
Description: Overexpression and purification of his-tagged wild-type h12-LOX (Uniprot entry P18054), h15-LOX-1 (Uniprot entry P16050), and h15-LOX-2 (Uniprot entry O15296) were performed using nickel-affinity chromatography. The purity of h12-LOX, h15-LOX-1, and h15-LOX-2 was assessed using SDS gel as greater than 85%, and metal content was assessed with a Finnigan inductively coupled plasma mass spectrometer (ICP-MS, Thermo Fischer Scientific, San Jose, USA) via comparison with iron standard solution. Cobalt-EDTA was used as an internal standard. WT h5-LOX (UniProt entry P09917) was expressed in Rosetta 2 cells (Novagen) transformed with the pET14b-Stable-5-LOX plasmid (a gift from Marcia Newcomer of Louisiana State University) and grown in Terrific Broth containing 34 μg/mL chloramphenicol and 100 μg/mL ampicillin at 37 °C for 3.5 h, then placed at 20 °C for an additional 26 h. Cells were pelleted and resuspended in 50 mM Tris (pH 8.0), 500 mM NaCl, 20 mM imidazole with 1 μM pepstatin, 100 μM PMSF, and DNaseI (Sigma, Kanagawa, Japan). The cells were lysed in a French pressure cell and centrifuged at 40,000× g for 20 min at 4 °C. Saturated ammonium sulfate was added to achieve a final solution of 10% and inverted several times. The lysate was centrifuged at 40,000× g for 10 min at 4 °C. The pellet was discarded, and the supernatant was increased to a final concentration of 50% ammonium sulfate. The supernatant was rotated for 10 min at 4 °C then centrifuged at 40,000× g for 10 min at 4 °C. The pellet was split into 150 mg aliquots. The WT h5-LOX used for the kinetics in this work was not purified due to a dramatic loss in activity and was therefore prepared as an ammonium-sulfate precipitate.
IC50 values for each acyl-CoA were measured against h5-LOX, h12-LOX, h15-LOX-1, and h15-LOX-2. […] The fastest rates over 15 s intervals were recorded. […]

h15-LOX-1 = target: T2, h15-LOX-1 (Homo sapiens, UniProt P16050); test: Substrate activity and kinetic parameters with h15-LOX-1; type: biochemical; details: acyl-CoAs tested at 70 µM, change in absorbance at 234 nm
T2 construct: His tag; made in house
T2 sequence (P16050 1-662): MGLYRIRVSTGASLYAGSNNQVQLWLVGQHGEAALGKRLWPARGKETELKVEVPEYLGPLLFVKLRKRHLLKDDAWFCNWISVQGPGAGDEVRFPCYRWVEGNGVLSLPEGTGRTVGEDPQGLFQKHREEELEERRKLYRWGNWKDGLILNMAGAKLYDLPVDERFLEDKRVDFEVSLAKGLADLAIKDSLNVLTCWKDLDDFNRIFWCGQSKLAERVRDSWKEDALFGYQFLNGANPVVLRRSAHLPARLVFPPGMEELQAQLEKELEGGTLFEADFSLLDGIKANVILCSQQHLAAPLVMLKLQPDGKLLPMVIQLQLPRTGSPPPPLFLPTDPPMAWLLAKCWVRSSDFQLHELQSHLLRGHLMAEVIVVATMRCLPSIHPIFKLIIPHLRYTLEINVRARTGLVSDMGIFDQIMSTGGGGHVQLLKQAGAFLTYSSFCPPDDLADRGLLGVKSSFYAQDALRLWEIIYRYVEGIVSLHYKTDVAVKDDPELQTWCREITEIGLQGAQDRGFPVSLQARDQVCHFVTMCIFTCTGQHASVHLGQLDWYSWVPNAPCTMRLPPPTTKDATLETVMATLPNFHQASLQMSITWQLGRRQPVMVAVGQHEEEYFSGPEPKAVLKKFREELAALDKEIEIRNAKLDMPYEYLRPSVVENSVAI
Description: Considering that some of these acyl-CoAs could potentially be substrates for LOX isozymes, each acyl-CoA was tested at 70 µM against each LOX isozyme to establish the possibility of catalysis.
The same buffer as used to determine IC50 values for h5-LOX was used for product determination. Turnover was monitored by absorbance at 234 nm.

Compound | IC50 (h5-LOX) | Substrate activity with h15-LOX-1 (h15-LOX-1) | Substrate activity with h15-LOX-1 (h15-LOX-1; listed as linoleoyl-CoA (18:2))
CC/C=C\C/C=C\C/C=C\C/C=C\C/C=C\C/C=C\CCC(=O)SCCNC(=O)CCNC(=O)C(O)C(C)(C)COP(=O)(O)OP(=O)(O)OC[C@H]1O[C@@H](n2cnc3c(N)ncnc32)[C@H](O)[C@@H]1OP(=O)(O)O (some centres unmarked) [Docosahexaenoyl CoA (22:6), docosahexaenoyl-coenzyme A (22:6)] | > 200 µM | – | –
CCCCC/C=C\C/C=C\CCCCCCCC(=O)SCCNC(=O)CCNC(=O)[C@H](O)C(C)(C)COP(=O)(O)OP(=O)(O)OC[C@H]1O[C@@H](n2cnc3c(N)ncnc32)[C@H](O)[C@@H]1OP(=O)(O)O [Linoleoyl-CoA (18:2), linoleoyl-CoA] | > 50 µM | (Substrate) | substrates; also recorded: rapid substrate
CCCCC/C=C\C/C=C\C/C=C\CCCCC(=O)SCCNC(=O)CCNC(=O)[C@H](O)C(C)(C)COP(=O)(O)OP(=O)(O)OC[C@H]1O[C@@H](n2cnc3c(N)ncnc32)[C@H](O)[C@@H]1OP(=O)(O)O [ɣ-Linolenoyl-CoA (18:3), ɣ-linolenoyl-coenzyme A (18:3)] | > 200 µM | – | –

Reference: PMC10341549, “Inhibitory Investigations of Acyl-CoA Derivatives against Human Lipoxygenase Isozymes” (International Journal of Molecular Sciences, 2023)
